# Measured values reported in patent publication US9421263B2, “Antimicrobial compositions containing synergistic combinations of quaternary ammonium compounds and essential oils and/or constituents thereof” (THE TRUSTEES OF COLUMBIA UNIVERSITY IN THE CITY OF NEW YORK, priority 2003, dated 2016).
# How the values were obtained:
# S. aureus = assay: Evaluation of rapid antimicrobial activity in presence of serum (S. aureus); format: cell-based; settings: for synergy in combination with farnesol, in words: Example 3, Table 3, rapid serum-based assay; for log10 reduction, With zinc salts / cfu/ml, With zinc salts / log10 reduction, Without zinc salts / cfu/ml, Without zinc salts: Table 2; for log10 reduction, With zinc salts / cfu/ml, With zinc salts: Base #1 with zinc salts; for log10 reduction, With zinc salts / cfu/ml, With zinc salts / log10 reduction, Without zinc salts / cfu/ml, Without zinc salts / cfu/ml / log10 reduction / log10 reduction, S. aureus / cfu/ml, S. aureus / Log10 reduction: serum; for log10 reduction, With zinc salts / cfu/ml, With zinc salts / log10 reduction, Without zinc salts / cfu/ml, Without zinc salts / cfu/ml / log10 reduction / log10 reduction, S. aureus / cfu/ml, S. aureus / Log10 reduction / CFU/mL: 15 seconds; for cfu/ml, With zinc salts / cfu/ml: control gel 1.4 × 10^7; for log10 reduction, Without zinc salts / cfu/ml, Without zinc salts: Base #2 without zinc salts; for cfu/ml, Without zinc salts: control gel 4.1 × 10^7; for cfu/ml / log10 reduction: Table 3, groups in gel Base #2 (% w/w); for log10 reduction, S. aureus / cfu/ml, S. aureus: Base #2; for synergy of the combination, in words: Example 1, Table 1, Base #1; for Log10 reduction / CFU/mL: Table 1, BZK 0.12%, CHG 0.05%, TC 0.3%, ZP 0.5%, F/LO/LI/CI 0.3%; for Log10 reduction: Base #1 (zinc salts), versus Control (Base); for CFU/mL: agents in alcohol based zinc gel Base #1, bovine adult serum, control 3.4 × 10^7
# Procedure: Evaluation of Rapid Antimicrobial Activity in Presence of Serum.
# To determine the efficacy of the antimicrobial composition on the skin, which may be contaminated with blood or other proteinaceous fluids containing bacteria, the antimicrobial activity was evaluated in the presence of serum as follows. Briefly, 0.5 ml of 10^8 CFU of S. aureus/ml was added to 0.5 ml of bovine adult serum in a sterile culture tube and mixed. 0.5 ml of the test formulation was added to each tube and vortexed. After 15 seconds, it was further diluted 1:100 with drug inactivating media (LTSB) and 0.5 ml was plated on a TSA plate. The plates were incubated at 37° C. for 24 hours and the colony count per ml of culture was determined.
# E. coli = assay: Rapid antimicrobial activity assay in presence of serum (E. coli); format: cell-based
# [1] = cited from earlier work
# [2] = Table 4, BZK 0.12% w/w, BZT 0.18% w/w, all other EO/IC 0.5% w/w
# [3] = Table 4, BZK 0.12% w/w, BZT 0.18% w/w, all other EO/IC 0.5% w/w, control 1.4 × 10^7
# [4] = Table 6, Gel Base #1, ingredients % w/w, control base 3.4 × 10^7 cfu/ml
# [5] = Table 7, ingredients in gram millimoles per 100 g Gel, control base 6.4 × 10^7 cfu/ml
# [6] = Table 4, Base #2, BZK 0.12% w/w, BZT 0.18% w/w, all other EO/IC 0.5% w/w, 15 seconds
# [7] = Table 4, Base #2, BZK 0.12% w/w, BZT 0.18% w/w, all other EO/IC 0.5% w/w, 15 seconds, control 2.6 × 10^7
# [8] = Table 5, Base #2, 15 seconds, gel base 2.6 × 10^7
# [9] = Example 6, Table 7, molar proportions
Molecule,"log10 reduction, S. aureus (S. aureus; Table 5)","cfu/ml, S. aureus (S. aureus; Table 5, gel base 1.4 × 10^7)",log10 reduction in colony count from the control (S. aureus; [4]),log10 reduction in colony count from the control (S. aureus; [5]),"log10 reduction, E. coli (E. coli; Table 5, Base #2, 15 seconds)","cfu/ml, E. coli (E. coli; [8])","synergy of the combination, in words (S. aureus)",Log10 reduction (S. aureus),CFU/mL (S. aureus),also measured
"CC(C)(C)CC(C)(C)c1ccc(OCCOCC[N+](C)(C)Cc2ccccc2)cc1 [BZT, benzethonium chloride]",1.4 log10,5.3 × 10^5 cfu/ml,1.6 log10,1.9 log10,1.8 log10,4.3 × 10^5 cfu/ml,,,,"synergy in combination with farnesol, in words (S. aureus): synergistic antimicrobial activity when used in combination with farnesol; log10 reduction, With zinc salts (S. aureus): 1.6 log10; cfu/ml, With zinc salts (S. aureus): 3.3 × 10^5 cfu/ml; log10 reduction, Without zinc salts (S. aureus): 1.7 log10; cfu/ml, Without zinc salts (S. aureus): 7.5 × 10^5 cfu/ml; cfu/ml (S. aureus; listed as BZT (0.06%)): 5.7 × 10^5 cfu/ml; cfu/ml (S. aureus; listed as BZT (0.12%)): 4.7 × 10^5 cfu/ml; cfu/ml (S. aureus; listed as BZT (0.18%)): 3.3 × 10^5 cfu/ml; log10 reduction (S. aureus; listed as BZT (0.06%)): 1.4 log10; log10 reduction (S. aureus; listed as BZT (0.12%)): 1.5 log10; log10 reduction (S. aureus; listed as BZT (0.18%)): 1.6 log10; log10 reduction, S. aureus (S. aureus; [2]): 1.4 log10; cfu/ml, S. aureus (S. aureus; [3]): 5.3 × 10^5 cfu/ml; log10 reduction, E. coli (E. coli; [6]): 1.8 log10; cfu/ml, E. coli (E. coli; [7]): 4.3 × 10^5 cfu/ml"
"N=C(NCCCCCCNC(=N)NC(=N)Nc1ccc(Cl)cc1)NC(=N)Nc1ccc(Cl)cc1.O=C(O)[C@H](O)[C@@H](O)[C@H](O)[C@H](O)CO.O=C(O)[C@H](O)[C@@H](O)[C@H](O)[C@H](O)CO [CHG, chlorhexidine gluconate]",1.3 log10,6.6 × 10^5 cfu/ml,1.7 log10,1.9 log10,1.7 log10,4.8 × 10^5 cfu/ml,No such synergism was observed when farnesol was combined,1.7 log10,6.6 × 10^5 CFU/mL,
"CC(C)=CCCC(C)=CC=O [CI, Citral]",,,,,,,synergistic antimicrobial effects when combined with BZK,1.3 log10,1.5 × 10^6 CFU/mL,
"CC(C)=CCCC(C)=CCCC(C)=CCO [F, Farnesol]",1.5 log10,4.5 × 10^5 cfu/ml,0.6 log10,1.8 log10,1.8 log10,4.3 × 10^5 cfu/ml,synergistic antimicrobial effects when combined with BZK,0.6 log10,8.4 × 10^6 CFU/mL,"log10 reduction, With zinc salts (S. aureus): 1.5 log10; cfu/ml, With zinc salts (S. aureus): 4.5 × 10^5 cfu/ml; log10 reduction, Without zinc salts (S. aureus): 1.7 log10; cfu/ml, Without zinc salts (S. aureus): 8.9 × 10^5 cfu/ml; log10 reduction (S. aureus): 1.5 log10; cfu/ml (S. aureus; listed as Farnesol (0.3%)): 4.6 × 10^5 cfu/ml; cfu/ml (S. aureus; listed as Farnesol (0.5%)): 4.5 × 10^5 cfu/ml; log10 reduction, S. aureus (S. aureus; [2]): 1.5 log10; cfu/ml, S. aureus (S. aureus; [3]): 4.5 × 10^5 cfu/ml; log10 reduction, E. coli (E. coli; [6]): 1.8 log10; cfu/ml, E. coli (E. coli; [7]): 4.3 × 10^5 cfu/ml"
"C=CC(C)(O)CCC=C(C)C (stereo not shown) [LI, Linalool]",,,,,,,synergistic antimicrobial effects when combined with BZK,1.3 log10,1.5 × 10^6 CFU/mL,
"Oc1cc(Cl)ccc1Oc1ccc(Cl)cc1Cl [TC, triclosan]",,,1.3 log10,1.3 log10,,,No such synergism was observed when farnesol was combined,1.3 log10,1.5 × 10^6 CFU/mL,"whether farnesol shows synergy with or enhances the antimicrobial agent, in words (S. aureus; Example 6, Table 6, % w/w): does not show any synergy; whether farnesol shows synergy with or enhances the antimicrobial agent, in words (S. aureus; [9]): but not with triclosan"
Polyhexamethylenebiguanide hydrochloride [PHMB],2.9 log10,4.3 × 10^4 cfu/ml,2.9 log10,2.1 log10,1.6 log10,6.0 × 10^5 cfu/ml,,,,"effect of added biguanide on the combination of BZT and farnesol, in words (S. aureus; Example 5, Table 5 (S. aureus and E. coli)): appears to enhance the activity of the combination of BZT and farnesol; whether farnesol shows synergy with or enhances the antimicrobial agent, in words (S. aureus; Example 6, Table 6, % w/w): enhances the activity; whether farnesol shows synergy with or enhances the antimicrobial agent, in words (S. aureus; [9]): appears to enhance the activity of farnesol"
benzalkonium chloride [BZK],,,1.8 log10,,,,significant synergistic activity in combination with EOs and ICs,1.8 log10,5.4 × 10^5 CFU/mL,"synergy in combination with farnesol, in words (S. aureus): synergistic antimicrobial activity when used in combination with farnesol; whether farnesol shows synergy with or enhances the antimicrobial agent, in words (S. aureus; Example 6, Table 6, % w/w): shows synergy; cfu/ml (S. aureus; listed as BZK (0.06%)): 1.8 × 10^6 cfu/ml; cfu/ml (S. aureus; listed as BZK (0.12%)): 5.4 × 10^5 cfu/ml; log10 reduction (S. aureus; listed as BZK (0.06%)): 0.9 log10; log10 reduction (S. aureus; listed as BZK (0.12%)): 1.4 log10; log10 reduction, S. aureus (S. aureus; [2]): 1.6 log10; cfu/ml, S. aureus (S. aureus; [3]): 3.3 × 10^5 cfu/ml; log10 reduction, E. coli (E. coli; [6]): 1.6 log10; cfu/ml, E. coli (E. coli; [7]): 5.8 × 10^5 cfu/ml"
zinc glycerate,,,,,,,,,,"water solubility, in words [1]: moderately water soluble"
zinc picolinate,,,,,,,,,,"water solubility, in words [1]: moderately water soluble"
zinc pyrithione [ZP],,,,,,,No such synergism was observed when farnesol was combined,1.4 log10,1.4 × 10^6 CFU/mL,
